Conditions: Liquid, Vibrating tube method

CCCCOCC [butyl ethyl ether]
Conditions | mass density [kg/m3]
283.15 K, 100 kPa | 759.63
283.15 K, 5000 kPa | 764.45
283.15 K, 10000 kPa | 768.96
283.15 K, 15000 kPa | 773.2
283.15 K, 20000 kPa | 777.2
283.15 K, 25000 kPa | 781.05
283.15 K, 30000 kPa | 784.72
283.15 K, 35000 kPa | 788.24
283.15 K, 40000 kPa | 791.65
283.15 K, 45000 kPa | 794.97
283.15 K, 50000 kPa | 798.13
283.15 K, 55000 kPa | 801.25
283.15 K, 60000 kPa | 804.23
283.15 K, 65000 kPa | 807.14
288.15 K, 100 kPa | 754.84
288.15 K, 5000 kPa | 759.82
288.15 K, 10000 kPa | 764.48
288.15 K, 15000 kPa | 768.83
288.15 K, 20000 kPa | 772.96
288.15 K, 25000 kPa | 776.9
288.15 K, 30000 kPa | 780.66
288.15 K, 35000 kPa | 784.28
288.15 K, 40000 kPa | 787.77
288.15 K, 45000 kPa | 791.13
288.15 K, 50000 kPa | 794.37
288.15 K, 55000 kPa | 797.51
288.15 K, 60000 kPa | 800.57
288.15 K, 65000 kPa | 803.54
293.15 K, 100 kPa | 750.02
293.15 K, 5000 kPa | 755.18
293.15 K, 10000 kPa | 759.98
293.15 K, 15000 kPa | 764.45
293.15 K, 20000 kPa | 768.69
293.15 K, 25000 kPa | 772.75
293.15 K, 30000 kPa | 776.62
293.15 K, 35000 kPa | 780.33
293.15 K, 40000 kPa | 783.87
293.15 K, 45000 kPa | 787.34
293.15 K, 50000 kPa | 790.66
293.15 K, 55000 kPa | 793.86
293.15 K, 60000 kPa | 796.96
293.15 K, 65000 kPa | 799.99
298.15 K, 100 kPa | 745.17
298.15 K, 5000 kPa | 750.51
298.15 K, 10000 kPa | 755.44
298.15 K, 15000 kPa | 760.05
298.15 K, 20000 kPa | 764.43
298.15 K, 25000 kPa | 768.58
298.15 K, 30000 kPa | 772.55
298.15 K, 35000 kPa | 776.36
298.15 K, 40000 kPa | 780.01
298.15 K, 45000 kPa | 783.52
298.15 K, 50000 kPa | 786.91
298.15 K, 55000 kPa | 790.19
298.15 K, 60000 kPa | 793.36
298.15 K, 65000 kPa | 796.44
303.15 K, 100 kPa | 740.3
303.15 K, 5000 kPa | 745.81
303.15 K, 10000 kPa | 750.9
303.15 K, 15000 kPa | 755.66
303.15 K, 20000 kPa | 760.15
303.15 K, 25000 kPa | 764.45
303.15 K, 30000 kPa | 768.49
303.15 K, 35000 kPa | 772.35
303.15 K, 40000 kPa | 776.1
303.15 K, 45000 kPa | 779.71
303.15 K, 50000 kPa | 783.18
303.15 K, 55000 kPa | 786.51
303.15 K, 60000 kPa | 789.75
303.15 K, 65000 kPa | 792.89
308.15 K, 100 kPa | 735.39
308.15 K, 5000 kPa | 741.09
308.15 K, 10000 kPa | 746.35
308.15 K, 15000 kPa | 751.24
308.15 K, 20000 kPa | 755.87
308.15 K, 25000 kPa | 760.26
308.15 K, 30000 kPa | 764.45
308.15 K, 35000 kPa | 768.44
308.15 K, 40000 kPa | 772.26
308.15 K, 45000 kPa | 775.95
308.15 K, 50000 kPa | 779.48
308.15 K, 55000 kPa | 782.89
308.15 K, 60000 kPa | 786.19
308.15 K, 65000 kPa | 789.36
313.15 K, 100 kPa | 730.45
313.15 K, 5000 kPa | 736.34
313.15 K, 10000 kPa | 741.76
313.15 K, 15000 kPa | 746.82
313.15 K, 20000 kPa | 751.59
313.15 K, 25000 kPa | 756.09
313.15 K, 30000 kPa | 760.38
313.15 K, 35000 kPa | 764.5
313.15 K, 40000 kPa | 768.36
313.15 K, 45000 kPa | 772.14
313.15 K, 50000 kPa | 775.74
313.15 K, 55000 kPa | 779.22
313.15 K, 60000 kPa | 782.57
313.15 K, 65000 kPa | 785.85
318.15 K, 100 kPa | 725.44
318.15 K, 5000 kPa | 731.57
318.15 K, 10000 kPa | 737.2
318.15 K, 15000 kPa | 742.41
318.15 K, 20000 kPa | 747.31
318.15 K, 25000 kPa | 751.96
318.15 K, 30000 kPa | 756.38
318.15 K, 35000 kPa | 760.54
318.15 K, 40000 kPa | 764.55
318.15 K, 45000 kPa | 768.4
318.15 K, 50000 kPa | 772.07
318.15 K, 55000 kPa | 775.65
318.15 K, 60000 kPa | 779.08
318.15 K, 65000 kPa | 782.35
323.15 K, 100 kPa | 720.43
323.15 K, 5000 kPa | 726.77
323.15 K, 10000 kPa | 732.59
323.15 K, 15000 kPa | 738
323.15 K, 20000 kPa | 743.03
323.15 K, 25000 kPa | 747.78
323.15 K, 30000 kPa | 752.29
323.15 K, 35000 kPa | 756.59
323.15 K, 40000 kPa | 760.68
323.15 K, 45000 kPa | 764.61
323.15 K, 50000 kPa | 768.4
323.15 K, 55000 kPa | 771.97
323.15 K, 60000 kPa | 775.47
323.15 K, 65000 kPa | 778.87
328.15 K, 100 kPa | 715.37
328.15 K, 5000 kPa | 721.95
328.15 K, 10000 kPa | 727.94
328.15 K, 15000 kPa | 733.52
328.15 K, 20000 kPa | 738.72
328.15 K, 25000 kPa | 743.64
328.15 K, 30000 kPa | 748.27
328.15 K, 35000 kPa | 752.68
328.15 K, 40000 kPa | 756.87
328.15 K, 45000 kPa | 760.88
328.15 K, 50000 kPa | 764.73
328.15 K, 55000 kPa | 768.42
328.15 K, 60000 kPa | 771.99
328.15 K, 65000 kPa | 775.41
333.15 K, 100 kPa | 710.26
333.15 K, 5000 kPa | 717.05
333.15 K, 10000 kPa | 723.28
333.15 K, 15000 kPa | 729.03
333.15 K, 20000 kPa | 734.4
333.15 K, 25000 kPa | 739.43
333.15 K, 30000 kPa | 744.2
333.15 K, 35000 kPa | 748.71
333.15 K, 40000 kPa | 753.02
333.15 K, 45000 kPa | 757.13
333.15 K, 50000 kPa | 761.02
333.15 K, 55000 kPa | 764.8
333.15 K, 60000 kPa | 768.41
333.15 K, 65000 kPa | 771.92

COC(C)(C)C [2-methoxy-2-methylpropane]
mass density [kg/m3]
Conditions | 283.15 K | 288.15 K | 293.15 K | 298.15 K | 303.15 K | 308.15 K | 313.15 K | 318.15 K | 323.15 K
100 kPa | 750.94 | 745.79 | 740.59 | 735.34 | 730.04 | 724.69 | 719.29 | 713.84 | 708.45
5000 kPa | 756.29 | 751.33 | 746.34 | 741.32 | 736.27 | 731.19 | 726.07 | 720.92 | 715.73
10000 kPa | 761.29 | 756.52 | 751.7 | 746.89 | 742.05 | 737.18 | 732.27 | 727.36 | 722.39
15000 kPa | 765.93 | 761.32 | 756.68 | 752.04 | 747.37 | 742.69 | 737.97 | 733.26 | 728.51
20000 kPa | 770.32 | 765.86 | 761.35 | 756.85 | 752.37 | 747.84 | 743.29 | 738.74 | 734.2
25000 kPa | 774.48 | 770.15 | 765.77 | 761.42 | 757.05 | 752.67 | 748.27 | 743.91 | 739.51
30000 kPa | 778.47 | 774.24 | 770.01 | 765.75 | 761.51 | 757.26 | 752.99 | 748.75 | 744.49
35000 kPa | 782.29 | 778.15 | 774 | 769.88 | 765.74 | 761.6 | 757.46 | 753.35 | 749.2
40000 kPa | 785.94 | 781.89 | 777.85 | 773.81 | 769.79 | 765.75 | 761.71 | 757.7 | 753.67
45000 kPa | 789.45 | 785.49 | 781.54 | 777.6 | 773.65 | 769.71 | 765.77 | 761.86 | 757.92
50000 kPa | 792.86 | 788.97 | 785.09 | 781.23 | 777.36 | 773.49 | 769.65 | 765.83 | 761.98
55000 kPa | 796.13 | 792.3 | 788.51 | 784.71 | 780.95 | 777.14 | 773.39 | 769.63 | 765.85
60000 kPa | 799.29 | 795.55 | 791.81 | 788.1 | 784.37 | 780.65 | 776.97 | 773.29 | 769.61
65000 kPa | 802.37 | 798.67 | 795 | 791.36 | 787.7 | 784.04 | 780.41 | 776.82 | 773.22
